Where two headings read alike, the source gives them in different places.
How the values were obtained:
PARG in HeLa cell line = test: PARG cell assay (PAR chain immunofluorescence after MMS); format: cell-based; settings: HeLa cells
Protocol: This method is based on the detection of endogenous levels of poly (ADP) ribose chains present in the nucleus of HeLa cell line using indirect immunofluorescence. MMS stimulation increases PAR chains for up to 25 mins. After that point, PARG is active and breaks down the PAR chains, until by one hour after stimulation no PAR chains are detectable. Inhibition of PARG maintains PAR chains.
Briefly, following compound treatment and treatment with the DNA damaging agent methylmethanesulfonate (MMS), the cell monolayer is fixed, then permeabilised and incubated with a mouse monoclonal antibody raised against multimers of poly(ADP) ribose.
At the end of the 1 h dosing period, MMS was added to duplicates at a final concentration of 50 μg/mL, for a further hour.
Media was tipped off and the cells fixed with 50 μL ice-cold 95% MetOH/PBS for 15 mins at −20° C. Following a PBS wash, 50 μL PBS/0.1% Triton was added to the cells for 20 mins. Following another PBS wash, anti-PAR antibody (Calbiochem AM80) was diluted 1:4000 in a buffer (PBS+0.5% FBS+0.05% Tween20) and added to the cells and incubated overnight at 4° C.
Cells were washed three times with PBS and the plate sealed with a light-proof seal.

Human Full Length PARG = Human Full Length PARG (Homo sapiens (Human), UniProt Q86W56); test: PARG enzyme assay (TR-FRET); format: biochemical
[1] = Homo sapiens, MMS treatment, read-out: PARG Cell IC50
[2] = Homo sapiens, MMS 50 μg/mL, read-out: PARG Cell IC50 Geomean
[3] = read-out: PARG Biochem IC50 Geomean
[4] = MMS 50 μg/mL, read-out: PARG Cell IC50 Geomean
[5] = MMS treatment, read-out: PARG Cell IC50

Chain of Human Full Length PARG (Q86W56 whole entry): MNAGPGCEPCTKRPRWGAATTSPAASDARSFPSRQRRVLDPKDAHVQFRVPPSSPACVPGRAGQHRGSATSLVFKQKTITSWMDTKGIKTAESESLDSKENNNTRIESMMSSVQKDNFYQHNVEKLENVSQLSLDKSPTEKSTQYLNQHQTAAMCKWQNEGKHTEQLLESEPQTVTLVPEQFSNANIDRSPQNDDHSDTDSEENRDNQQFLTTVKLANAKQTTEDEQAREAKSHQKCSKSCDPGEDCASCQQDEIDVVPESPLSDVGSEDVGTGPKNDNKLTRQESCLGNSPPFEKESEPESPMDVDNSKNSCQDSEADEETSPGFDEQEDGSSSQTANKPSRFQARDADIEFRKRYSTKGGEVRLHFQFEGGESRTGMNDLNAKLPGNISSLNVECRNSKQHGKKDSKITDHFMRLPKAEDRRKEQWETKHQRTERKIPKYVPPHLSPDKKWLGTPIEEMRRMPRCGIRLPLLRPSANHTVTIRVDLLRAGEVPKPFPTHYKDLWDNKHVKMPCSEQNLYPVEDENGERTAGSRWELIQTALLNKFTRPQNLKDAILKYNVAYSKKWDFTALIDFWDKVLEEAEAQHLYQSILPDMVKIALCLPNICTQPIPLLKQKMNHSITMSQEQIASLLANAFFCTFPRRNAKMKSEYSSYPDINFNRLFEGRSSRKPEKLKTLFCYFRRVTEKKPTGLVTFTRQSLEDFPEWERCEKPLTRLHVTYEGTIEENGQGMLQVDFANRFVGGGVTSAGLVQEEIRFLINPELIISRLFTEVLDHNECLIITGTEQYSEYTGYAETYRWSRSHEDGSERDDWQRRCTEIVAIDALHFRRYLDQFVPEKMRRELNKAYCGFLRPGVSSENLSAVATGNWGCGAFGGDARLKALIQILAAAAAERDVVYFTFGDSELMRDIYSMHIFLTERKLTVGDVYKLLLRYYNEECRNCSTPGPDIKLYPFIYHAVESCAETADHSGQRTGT

| Structure (SMILES) | IC50 (PARG in HeLa cell line; [1]) | IC50 (Human Full Length PARG; read-out: PARG Biochem IC50) | IC50 (PARG in HeLa cell line; [2]) | IC50 (Human Full Length PARG; [3]) | further results |
| --- | --- | --- | --- | --- | --- |
| Cc1cc(Cn2c(=O)c3cc(S(=O)(=O)NC4(C)CC4)ccc3n(CC3CCC(F)(F)CC3)c2=O)on1 [Example 405, 1-[(4,4-Difluorocyclohexyl)methyl]-N-(1-methylcyclopropyl)-3-[(3-methylisoxazol-5-yl)methyl]-2,4-dioxo-quinazoline-6-sulfonamide] | 144 nM | 248 nM |  |  |  |
| CC(C)CCn1c(=O)n(Cc2cnn(C)c2)c(=O)c2cc(S(=O)(=O)NC3(CF)CC3)ccc21 [Example 613, N-[1-(Fluoromethyl)cyclopropyl]-1-isopentyl-3-[(1-methylpyrazol-4-yl)methyl]-2,4-dioxo-quinazoline-6-sulfonamide] | 56 nM | 42 nM |  |  |  |
| Cn1cc(Cn2c(=O)c3cc(S(=O)(=O)NC4(CF)CC4)ccc3n(Cc3ccncc3)c2=O)cn1 [Example 610, N-[1-(Fluoromethyl)cyclopropyl]-3-[(1-methylpyrazol-4-yl)methyl]-2,4-dioxo-1-(4-pyridylmethyl)quinazoline-6-sulfonamide] | 669 nM | 111 nM |  |  |  |
| Cc1nc(Cn2c(=O)n(Cc3cnn(C)c3)c(=O)c3cc(S(=O)(=O)NC4(CF)CC4)ccc32)n(C)n1 [Example 547, 1-[(2,5-Dimethyl-1,2,4-triazol-3-yl)methyl]-N-[1-(fluoromethyl)cyclopropyl]-3-[(1-methylpyrazol-4-yl)methyl]-2,4-dioxo-quinazoline-6-sulfonamide] | 751 nM | 188 nM |  |  |  |
| Cc1cc(Cn2c(=O)n(Cc3cnn(C)c3)c(=O)c3cc(S(=O)(=O)NC4(C#N)CC4)ccc32)on1 [Example 359] |  |  | 1100 nM | 43 nM |  |
| Cn1cc(Cn2c(=O)c3cc(S(=O)(=O)NC4(CF)CC4)ccc3n(Cc3ccc(C#N)cc3)c2=O)cn1 [Example 543, 1-[(4-Cyanophenyl)methyl]-N-[1-(fluoromethyl)cyclopropyl]-3-[(1-methylpyrazol-4-yl)methyl]-2,4-dioxo-quinazoline-6-sulfonamide] | 70 nM | 58 nM |  |  |  |
| Cc1cc(Cn2c(=O)c3cc(S(=O)(=O)NC4(CF)CC4)ccc3n(CC3CC3)c2=O)on1 [Example 517, 1-(Cyclopropylmethyl)-N-[1-(fluoromethyl)cyclopropyl]-3-[(3-methylisoxazol-5-yl)methyl]-2,4-dioxo-quinazoline-6-sulfonamide] | 41 nM | 56 nM |  |  |  |
| Cn1cc(Cn2c(=O)c3cc(S(=O)(=O)NC4(CF)CC4)ccc3n(Cc3cocn3)c2=O)cn1 [Example 607, N-[1-(Fluoromethyl)cyclopropyl]-3-[(1-methylpyrazol-4-yl)methyl]-1-(oxazol-4-ylmethyl)-2,4-dioxo-quinazoline-6-sulfonamide] | 76 nM | 63 nM |  |  |  |
| Cn1cc(Cn2c(=O)c3cc(S(=O)(=O)NC4(C)CC4)ccc3n(CC3CCSCC3)c2=O)cn1 [Example 380] |  |  | 90 nM | 59 nM |  |
| Cc1cc(Cn2c(=O)c3cc(S(=O)(=O)NC4(CF)CC4)ccc3n(Cc3noc(C)n3)c2=O)on1 [Example 558, N-[1-(Fluoromethyl)cyclopropyl]-3-[(3-methylisoxazol-5-yl)methyl]-1-[(5-methyl-1,2,4-oxadiazol-3-yl)methyl]-2,4-dioxo-quinazoline-6-sulfonamide] | 177 nM | 207 nM |  |  |  |
| Cc1cc(Cn2nc(NCCN(C)C)c3ccc(S(=O)(=O)NC4(C)CC4)cc3c2=O)on1 [Example 253] |  |  | 2020 nM | 376 nM |  |
| Cc1cc(Cn2c(=O)c3cc(S(=O)(=O)NC4(CF)CC4)ccc3n(CC(F)(F)F)c2=O)on1 [Example 622, N-[1-(Fluoromethyl)cyclopropyl]-3-[(3-methylisoxazol-5-yl)methyl]-2,4-dioxo-1-(2,2,2-trifluoroethyl)quinazoline-6-sulfonamide] | 228 nM | 355 nM |  |  |  |
| COc1cccc(Cn2c(=O)n(CC#N)c(=O)c3cc(S(=O)(=O)NC4(C)CC4)ccc32)c1 [Example 187] |  |  | 343 nM | 467 nM |  |
| Cn1cc(Cn2c(=O)c3cc(S(=O)(=O)NC4(CF)CC4)ccc3n(CC3CCOC3)c2=O)cn1 (stereo not shown) [Example 598, N-[1-(Fluoromethyl)cyclopropyl]-3-[(1-methylpyrazol-4-yl)methyl]-2,4-dioxo-1-(tetrahydrofuran-3-ylmethyl)quinazoline-6-sulfonamide] | 240 nM | 82 nM |  |  |  |
| Cc1cc(Cn2c(=O)n(Cc3cnn(C)c3)c(=O)c3cc(S(=O)(=O)NC4(CF)CC4)ccc32)on1 [Example 441, N-[1-(Fluoromethyl)cyclopropyl]-1-[(3-methylisoxazol-5-yl)methyl]-3-[(1-methylpyrazol-4-yl)methyl]-2,4-dioxo-quinazoline-6-sulfonamide] |  | 24 nM |  |  | IC50 (PARG in HeLa cell line; [5]): 74 nM |
| Cn1cc(Cc2cc3cc(S(=O)(=O)NC4(C)CC4)ccc3[nH]c2=O)cn1 [Example 486, N-(1-Methylcyclopropyl)-3-[(1-methylpyrazol-4-yl)methyl]-2-oxo-1H-quinoline-6-sulfonamide] | 2280 nM | 1620 nM |  |  |  |
| Cn1cc(Cn2c(=O)c3cc(S(=O)(=O)NC4(CF)CC4)ccc3n(CCF)c2=O)cn1 [Example 544, 1-(2-Fluoroethyl)-N-[1-(fluoromethyl)cyclopropyl]-3-[(1-methylpyrazol-4-yl)methyl]-2,4-dioxo-quinazoline-6-sulfonamide] | 86 nM | 151 nM |  |  |  |
| Cn1cc(Cn2c(=O)[nH]c3cc(F)c(S(=O)(=O)NC4(C)CC4)cc3c2=O)cn1 [Example 384, 7-Fluoro-N-(1-methylcyclopropyl)-3-[(1-methylpyrazol-4-yl)methyl]-2,4-dioxo-1H-quinazoline-6-sulfonamide] |  |  |  | 374 nM | IC50 (PARG in HeLa cell line; [4]): 974 nM |
| Cc1cc(Cn2c(=O)n(Cc3cnn(C)c3)c(=O)c3cc(S(=O)(=O)NC(C)(C)C)ccc32)n(C)n1 [Example 480] |  | 784 nM |  |  | IC50 (PARG in HeLa cell line; [5]): 1530 nM |
| Cc1cc(Cn2c(=O)c3cc(S(=O)(=O)NC4(C)CC4)ccc3n(Cc3cc(C)no3)c2=O)on1 [Example 208] |  |  | 69 nM | 36 nM |  |
| Cc1ncc(Cn2c(=O)n(Cc3cnn(C)c3)c(=O)c3cc(S(=O)(=O)NC4(CF)CC4)ccc32)o1 [Example 548, N-[1-(Fluoromethyl)cyclopropyl]-1-[(2-methyloxazol-5-yl)methyl]-3-[(1-methylpyrazol-4-yl)methyl]-2,4-dioxo-quinazoline-6-sulfonamide] | 63 nM | 34 nM |  |  |  |

The next lines start with results.

| IC50 (PARG in HeLa cell line; [1]) | IC50 (Human Full Length PARG; read-out: PARG Biochem IC50) | IC50 (PARG in HeLa cell line; [2]) | IC50 (Human Full Length PARG; [3]) | Structure (SMILES) | further results |
| --- | --- | --- | --- | --- | --- |
| 289 nM | 440 nM |  |  | Cc1cc(Cn2c(=O)c3cc(S(=O)(=O)NC4(C)CC4)ccc3n(CC3CC(=O)C3)c2=O)on1 [Example 412, N-(1-Methylcyclopropyl)-3-[(3-methylisoxazol-5-yl)methyl]-2,4-dioxo-1-[(3-oxocyclobutyl)methyl]quinazoline-6-sulfonamide] |  |
| 736 nM | 2690 nM |  |  | CCc1nnc(Cn2c(=O)c3cc(S(=O)(=O)NC4(CF)CC4)ccc3n(C)c2=O)s1 [Example 628, 3-[(5-Ethyl-1,3,4-thiadiazol-2-yl)methyl]-N-[1-(fluoromethyl)cyclopropyl]-1-methyl-2,4-dioxo-quinazoline-6-sulfonamide] |  |
|  |  | 288 nM | 483 nM | Cc1ncc(Cn2c(=O)c3cc(S(=O)(=O)NC4(C)CC4)ccc3n(C)c2=O)s1 [Example 109] |  |
|  |  | 310 nM | 404 nM | Cc1cc(Cn2c(=O)c3cc(S(=O)(=O)NC4(C)CC4)ccc3n(CCCN(C)C)c2=O)on1 [Example 247] |  |
| 2840 nM | 7000 nM |  |  | Cn1c(=O)n(CC2COC2)c(=O)c2cc(S(=O)(=O)NC3(C)CC3)ccc21 [Example 481, 1-Methyl-N-(1-methylcyclopropyl)-3-(oxetan-3-ylmethyl)-2,4-dioxo-quinazoline-6-sulfonamide] |  |
|  |  | 315 nM | 402 nM | Cc1cc(Cn2c(=O)c3cc(S(=O)(=O)NC4(C)CC4)ccc3n(CC3CCCN3C)c2=O)on1 (stereo not shown) [Example 249] |  |
| 274 nM | 830 nM |  |  | Cc1cc(Cn2c(=O)c3cc(S(=O)(=O)NC4(C)CC4)cc(Br)c3n(C)c2=O)on1 [Example 482, 8-Bromo-1-methyl-N-(1-methylcyclopropyl)-3-[(3-methylisoxazol-5-yl)methyl]-2,4-dioxo-quinazoline-6-sulfonamide] |  |
|  |  |  | 209 nM | COCCCn1c(=O)n(Cc2cnn(C)c2)c(=O)c2cc(S(=O)(=O)NC3(C)CC3)ccc21 [Example 239] | IC50 (PARG in HeLa cell line; [4]): 127 nM |
| 126 nM | 263 nM |  |  | Cn1cc(Cn2c(=O)c3cc(S(=O)(=O)NC4(C)CC4)ccc3n(CCF)c2=O)cn1 [Example 410, 1-(2-Fluoroethyl)-N-(1-methylcyclopropyl)-3-[(1-methylpyrazol-4-yl)methyl]-2,4-dioxo-quinazoline-6-sulfonamide] |  |
|  |  | 328 nM | 323 nM | CNCCCn1c(=O)n(Cc2cc(C)no2)c(=O)c2cc(S(=O)(=O)NC3(C)CC3)ccc21 [Example 250] |  |
|  |  | 285 nM | 232 nM | CN(C)CCCn1c(=O)n(Cc2cnn(C)c2)c(=O)c2cc(S(=O)(=O)NC3(C)CC3)ccc21 [Example 237] |  |
